The values that follow come from patent US7964613B2 (Asahi Kasei Pharma Corporation, priority 2007, dated 2011).

Molecules are shown by their SMILES.

Assay [1] has as its target T1, human ROCK1 (Homo sapiens, UniProt Q13464).
T1 construct: His tag (N); host or cells: insect cells (Sf9)
As to the kind of experiment: Measurement of Rho kinase inhibitory activity (ELISA of MBS phosphorylation). Type of assay: biochemical. To be noted: human ROCK1, MBS substrate, 100 μM ATP, 30° C. for 10 minutes. In a few lines:
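N-terminal His-tagged human ROCK1 (1-727, Sf9-expressed) phosphorylated plate-immobilized MBS in 20 mM HEPES pH 7.5, 100 μM ATP, 30° C for 10 minutes. Phospho-MBS detected by antibody ELISA (A490); IC50 is concentration giving 50% inhibition.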
In general terms: An ELISA detects its analyte on a solid surface through an enzyme-linked reagent.

In assay [2] the test system is TNF-α production. As to the kind of experiment: Inhibitory effect on TNF-α production in mice (LPS). Type of assay: in vivo, BALB/c mice. To be noted: Mus musculus, 1.5 h; oral administration of 30 mg/kg, LPS 5 μg i.p. 60 minutes later, plasma after 90 minutes; read-out: TNF-α production suppressing action. Here is the method:
BALB/c mice (Japan CRJ, famale) were used as experimental animals. Each test compound was dissolved in distilled water at a concentration suitable for the examination. The weight of each mouse was measured, a test compound solution was orally administered in a volume corresponding to 10 ml/kg, and only distilled water was administered to the control group. Each group consisted of five to seven animals. LPS was dissolved in physiological saline, and intraperitoneally administered to each mouse in an amount of 5 μg. The test compound was administered first, and LPS (lipopolysaccharide, Sigma) was administered 60 minutes later. After 90 minutes, blood was collected from the abdominal large vein in the presence of heparin, and plasma was obtained by centrifugation. TNF-α content in the plasma was measured by using the ELISA method.

Assay [3] relates to mouse neuroblastoma cell strain N1E-115. Kind of assay: Inhibitory effect on neurite retraction (LPA-induced). It counts as cell-based. To be noted: mouse/rat NG108-15; 10 μM compound, 1 μM LPA, N1E-115 cells. As to the method:
An experiment for Inhibitory effect on neurite retraction using mouse neuroblastoma cell strain N1E-115 was performed according to the method of Hirose, M. et al. (J. Cell. Biol., 141, pp. 1625-1636 (1998)). This method utilizes the fact that LPA (lysophosphatidic acid), which is a endogenous substance, induces neurite retraction, and is a method of evaluating how much a drug can inhibit the LPA-induced neurite retraction and thereby evaluating potency of inhibition of neuronal degeneration and potency of neuronal regeneration of the drug. N1E-115 cells cultured in a DMEM solution containing 20% heat-inactivated fetal bovine serum were plated on a 6-well plate (IWAKI) at a density of 40,000 cells/well, and cultured overnight at 37° C. in the same culture medium in a 5% CO2 incubator. In order to induce differentiation of the N1E 115 cells into nerve cells, the culture medium was changed to the serum-free DMEM solution, and the cells were cultured for 1 or 2 days at 37° C. in the 5% CO2 incubator until most of the cells extended the neurites. On the examination day, each compound of the present invention was added at a final concentration of 10 μM, incubation was performed for 30 minutes, then LPA (Sigma) was added at a final concentration of 1 μM, and incubation was further performed for 10 minutes. To the control, the same volume of phosphate buffered saline as the solvent was added. After completion of the incubation, glutaraldehyde was added at a final concentration of 5% to fix the cells. […] The inhibition rate (%) of each drug was calculated by using the following equation. Inhibition rate(%)=100−(RCP obtained with drug to be evaluated−RCP of control)/(RCP obtained with LPA−RCP of control)×100

T1 sequence (Q13464 1-727): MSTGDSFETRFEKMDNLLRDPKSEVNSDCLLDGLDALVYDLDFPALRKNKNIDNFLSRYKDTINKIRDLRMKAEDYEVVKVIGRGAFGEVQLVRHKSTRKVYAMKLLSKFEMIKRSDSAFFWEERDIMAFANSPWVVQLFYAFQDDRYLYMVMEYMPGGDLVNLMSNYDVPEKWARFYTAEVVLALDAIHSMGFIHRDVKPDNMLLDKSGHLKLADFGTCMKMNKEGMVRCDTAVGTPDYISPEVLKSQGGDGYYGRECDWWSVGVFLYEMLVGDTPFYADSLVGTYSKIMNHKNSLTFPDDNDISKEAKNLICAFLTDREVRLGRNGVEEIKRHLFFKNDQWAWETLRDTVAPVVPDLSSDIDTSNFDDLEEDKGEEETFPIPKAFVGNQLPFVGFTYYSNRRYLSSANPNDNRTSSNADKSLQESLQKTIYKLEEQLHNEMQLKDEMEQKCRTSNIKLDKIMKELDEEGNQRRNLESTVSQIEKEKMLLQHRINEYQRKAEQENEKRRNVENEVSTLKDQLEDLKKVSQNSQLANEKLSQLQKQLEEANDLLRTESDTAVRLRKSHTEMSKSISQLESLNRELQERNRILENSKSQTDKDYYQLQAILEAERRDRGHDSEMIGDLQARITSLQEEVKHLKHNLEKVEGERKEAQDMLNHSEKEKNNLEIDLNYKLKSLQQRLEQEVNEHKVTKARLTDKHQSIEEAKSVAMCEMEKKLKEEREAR

On to `CN[C@H]1CCN(S(=O)(=O)c2cccc3cncc(C)c23)C1` [Example 8-3], for which the IC50 in assay [1] is under 1000 nM. In addition, in assay [2], the inhibition in vivo at 30 mg/kg is at least 50%. Besides, the inhibition at 10 µM in assay [3] was at least 50%.
For the molecule `N[C@H]1CCN(S(=O)(=O)c2cccc3cncc(Cl)c23)C1` [Example 19-1, (S)-3-Amino-1-(4-chloro-5-isoquinolinesulfonyl)pyrrolidine], the IC50 in assay [1] is under 1000 nM. The inhibition in vivo at 30 mg/kg in assay [2] is at least 50%. This molecule also showed an inhibition at 10 µM in assay [3] of at least 50%.
In assay [1], `CN[C@H]1CCN(S(=O)(=O)c2cccc3cncc(Cl)c23)C1` [Example 19-3, (S)-1-(4-Chloro-5-isoquinolinesulfonyl)-3-(methylamino)pyrrolidine] registered an IC50 of under 1000 nM. The inhibition in vivo at 30 mg/kg in assay [2] was at least 50%. In assay [3], this molecule returned an inhibition at 10 µM of at least 50%.
In turn, `CN[C@H]1CCN(S(=O)(=O)c2cccc3c(O)ncc(Cl)c23)C1` [Example 36-1, (S)-1-(1-Hydroxy-4-chloro-5-isoquinolinesulfonyl)-3-(methylamino)pyrrolidine] yielded an IC50 in assay [1] of under 1000 nM. Besides, the inhibition in vivo at 30 mg/kg in assay [2] was at least 50%. For the same molecule, the inhibition at 10 µM in assay [3] was at least 50%.

In general, IC50 refers to the point on the concentration scale where inhibition reaches its midpoint. Read a low IC50 as higher potency. What is called inhibition is the percentage by which the read-out fell short of the control. A low value points to a response near the control.
